Laboratory results reported in US9044487B2, “Hematopoietic neoplasm chemotherapy” (Eli Lilly and Company, priority 2009, dated 2015).
pEC50: −log10 of the molar value. Like-named read-outs stand apart in the source and are kept apart here. Blank lines part the entries; values can stand above or below the compound they belong to.

What was measured:
[1] = test system: MV4;11 leukemia xenografts; assay: Antitumor efficacy in MV4;11 leukemia xenografts; assay type: in vivo, female CD-1 nu/nu strain mice; settings: vehicle control 233 ± 23.2
Protocol: Cultured cells (ATCC) are implanted subcutaneously in the rear flank of female CD-1 nu/nu strain mice which have been acclimated for one week in the animal facility after receipt from the vendor. […] The tumors are measured 2 times per week by electronic calipers to plot growth curves. Animals are also monitored for fluctuations in body weight and survival.

HEL 92.1.7 [2] = assay: Caspase 3 activity (Apo-ONE Homogeneous Caspase-3/7 Assay); assay type: cell-based, human; settings: relative to untreated controls
Source text: (§1) Apoptosis or programmed cell death is characterized by a set of biochemical reactions, one of which is the induction of caspases. Activated caspases are proteases that participate in a cascade of cleavage events that disable key enzymes responsible for cell homeostasis and repair. Caspases 3 and 7 play key effector roles in apoptosis and can be detected and measured by a fluorescent biochemical assay. The increase of Caspase-3/7 activity in cells is directly correlated to apoptotic activity. (D. W. Nicholson, et al., Nature, 376, 37-43 (1995)) The Promega Apo-ONE Homogeneous Caspase-3/7 Assay Kit is used (Catalog #G7791). The assay buffer consists of 30 mM HEPES (N-(2-hydroxyethyl)piperazine-N′-(2-ethanesulfonic acid) pH 7.4, 150 mM NaCl, 50 mM KCl, 10 mM MgCl2, 0.4 mM EGTA (ethylene glycol tetraacetic acid), 0.5% Nonidet P40 (octylphenolpoly(ethyleneglycol ether)), 0.1% CHAPS (3-[(3-Cholamidopropyl)dimethylammonio]-1-propanesulfonate hydrate and 10% sucrose, which lyses/permeabilizes cultured cells and a caspase 3/7 substrate, Z-DEVD (Z-Asp(OMe)-Glu(OMe)-Val-Asp(OMe)), coupled to a profluorescent rhodamine 110. When the buffer-substrate mixture is added to a test sample, the cleavage and subsequent removal of the DEVD peptides by caspase 3/7 activity results in intense fluorescence of the rhodamine 110 leaving group, which is detected by excitation at 490 nm. The amount of fluorescent product is proportional to the amount of caspase 3/7 cleavage activity in the sample.
(§2) To measure the apoptotic effect of test compounds, tumor cells are plated at 1×10^4 cells per well in 96 well plates and incubated overnight at 37° C., with 5% CO2. Tumor cells are treated with test compound at desired concentrations in triplicate, including untreated/negative control wells. The assay plates are re-incubated for 48 hrs. At the end of the incubation period, a mixture of the assay buffer and substrate is added to each sample well. The fluorescence in each well is measured at an excitation wavelength of 480+/−20 nm and an emission wavelength of 530+/−25 nm. The % increase of caspase activity in treated cells is calculated relative to untreated controls.
(§3) MV4;11 is a human acute myeloid leukemia line characterized by the presence of a fusion transcript comprised of the MLL and AF4 genes and by the presence of an internal tandem duplication in the juxtamembrane region of the FLT-3 gene. RS4;11 is a human acute lymphoid leukemia cell line characterized by the presence of a fusion transcript comprised of the MLL and AF4 genes. REH is a human acute lymphoid leukemia (non-T; non-B) cell line characterized by the presence of a fusion transcript comprised of the TEL and AML1 genes. Kasumi 1 is a human acute myeloid leukemia line characterized by the presence of a fusion transcript comprised of the AML1 and ETO genes. K562 is a human chronic myelogenous leukemia cell line characterized by the presence of a fusion transcript comprised of the Bcr and Abl genes. HEL 92.1.7 is a human erythroleukemia cell line characterized by the presence of a V617F mutation in the JAK2 gene. Jurkatt is a human acute T-cell leukemia cell line. Each of the cell lines are obtained from the American Type Culture Collection (ATCC). In the following tables the term “Compound 1” or “Cmpd 1” means 7-(2,5-dihydro-4-imidazo[1,2-a]pyridine-3-yl-2,5-dioxo-1H-pyrrol-3-yl)-9-fluoro-1,2,3,4-tetrahydro-2-(1-piperidinyl-carbonyl)-pyrrolo[3,2,1-jk][1,4]benzodiazepine. The GSK-3 inhibitor [(3-(2,4-dichlorophenyl)-4-(1-methyl-1H-indol-3-yl)-1H-pyrrole-2,5-dione (SB216763), Sigma-Aldrich is used as a positive comparator control in some experiments. The compound GSK-3 Inhibitor IX, (2′Z,3′E)-6-bromoindirubin-3′-oxime (“GSK3-IX”) Calbiochem, is used as a positive control in some experiments. Both SB216763 and GSK3-IX are mentioned in the Wang et al., Nature, 455, 1205-1210 (2008) paper as evidencing positive results. […]

Jurkat [3] = assay: as above; assay type: cell-based, human; settings: relative to untreated controls
Source text: as §1, §2, §3

K562 [4] = assay: as above; assay type: cell-based, human; settings: relative to untreated controls
Source text: as §1, §2, §3

Kasumi 1 = assay: as above; assay type: cell-based, human; settings: relative to untreated controls
Source text: as §1, §2, §3

MV4;11 [5] = assay: as above; assay type: cell-based, human; settings: relative to untreated controls
Source text: as §1, §2, §3

REH [6] = assay: as above; assay type: cell-based, human; settings: relative to untreated controls
Source text: as §1, §2, §3

RS4;11 [7] = assay: as above; assay type: cell-based, human; settings: relative to untreated controls
Source text: as §1, §2, §3

HEL 92.1.7 [8] = assay: Reduction in cell viability (CellTiter-Glo Luminescent Cell Viability Assay); assay type: cell-based, human; settings: 48 hrs, read-out: Reduction in cell viability after treatment - EC50 (mean of triplicates)
Protocol: (§4) Cell viability is determined by the CellTiter-Glo® Luminescent Cell Viability Assay (Promega, Catalog #G7570) which is a method of estimating viable cell number based on quantitation of ATP in metabolically active cells. After cells are lysed, the mono-oxygenation of the substrate luciferin is catalyzed by the enzyme luciferase in the presence of Mg2+, ATP and molecular oxygen, resulting in the generation of a luminescent signal that is proportional to the number of viable cells in the assay wells.
(§5) To measure the viability of cells after treatment with compounds, tumor cells are plated at 2×10^4 per well in 96 well plates and incubated overnight at 37° C., with 5% CO2. Tumor cells are treated with test compound at desired concentrations in triplicate, including untreated/negative control cells. The assay plates are re-incubated for 48 hrs. At the end of the incubation period, a mixture of lysis assay buffer and substrate is added to each sample well. The luminescence in each well is measured using a microtiter plate luminometer.
(§6) MV4;11 is a human acute myeloid leukemia line characterized by the presence of a fusion transcript comprised of the MLL and AF4 genes and by the presence of an internal tandem duplication in the juxtamembrane region of the FLT-3 gene. RS4;11 is a human acute lymphoid leukemia cell line characterized by the presence of a fusion transcript comprised of the MLL and AF4 genes. REH is a human acute lymphoid leukemia (non-T; non-B) cell line characterized by the presence of a fusion transcript comprised of the TEL and AML1 genes. Kasumi 1 is a human acute myeloid leukemia line characterized by the presence of a fusion transcript comprised of the AML1 and ETO genes. K562 is a human chronic myelogenous leukemia cell line characterized by the presence of a fusion transcript comprised of the Bcr and Abl genes. […] Jurkatt is a human acute T-cell leukemia cell line. Each of the cell lines are obtained from the American Type Culture Collection (ATCC).

Jurkat [9] = assay: as above; assay type: cell-based, human; settings: 48 hrs, read-out: Reduction in cell viability after treatment - EC50 (mean of triplicates)
Protocol: as §4, §5, §6

K562 [10] = assay: as above; assay type: cell-based, human; settings: 48 hrs, read-out: Reduction in cell viability after treatment - EC50 (mean of triplicates)
Protocol: as §4, §5, §6

Kasumi = assay: as above; assay type: cell-based, human; settings: 48 hrs, read-out: Reduction in cell viability after treatment - EC50 (mean of triplicates)
Protocol: as §4, §5, §6

MV4;11 [11] = assay: as above; assay type: cell-based, human; settings: 48 hrs, read-out: Reduction in cell viability after treatment - EC50 (mean of triplicates)
Protocol: as §4, §5, §6

REH [12] = assay: as above; assay type: cell-based, human; settings: 48 hrs, read-out: Reduction in cell viability after treatment - EC50 (mean of triplicates)
Protocol: as §4, §5, §6

RS4;11 [13] = assay: as above; assay type: cell-based, human; settings: 48 hrs, read-out: Reduction in cell viability after treatment - EC50 (mean of triplicates)
Protocol: as §4, §5, §6

Structure (SMILES): Nc1ccn([C@@H]2O[C@H](CO)[C@@H](O)[C@@H]2O)c(=O)n1 [Arabinosylcytosine]
Tumor Volume at day 33 Mean ± Standard Error ([1]; 30 mg/kg IP administered every day for 14 days): 129 ± 11.2 mm^3

pEC50 (Jurkat [9]; Homo sapiens): 7.34
pEC50 (K562 [10]; Homo sapiens): 7.34
pEC50 (MV4;11 [11]; Homo sapiens): 7.09
pEC50 (RS4;11 [13]; Homo sapiens): 8.30
Structure (SMILES): O=C1NC(=O)C(c2cnc3ccccn23)=C1c1cn2c3c(cc(F)cc13)CN(C(=O)N1CCCCC1)CC2 [Compound 1, 7-(2,5-dihydro-4-imidazo[1,2-a]pyridine-3-yl-2,5-dioxo-1H-pyrrol-3-yl)-9-fluoro-1,2,3,4-tetrahydro-2-(1-piperidinyl-carbonyl)-pyrrolo[3,2,1-jk][1,4]benzodiazepine]
% Increase in Caspase 3 after treatment with Cmpd 1 (mean of triplicates) (HEL 92.1.7 [2]; 0.120 μM Compound 1, 48 hrs): 284%
% Increase in Caspase 3 after treatment with Cmpd 1 (mean of triplicates) (Jurkat [3]; 0.370 μM Compound 1, 48 hrs): 140%
% Increase in Caspase 3 after treatment with Cmpd 1 (mean of triplicates) (K562 [4]; 0.0007 μM Compound 1, 48 hrs): 1057%
% Increase in Caspase 3 after treatment with Cmpd 1 (mean of triplicates) (Kasumi 1; 0.370 μM Compound 1, 48 hrs): 133%
% Increase in Caspase 3 after treatment with Cmpd 1 (mean of triplicates) (MV4;11 [5]; 0.010 μM Compound 1, 48 hrs): 188%
% Increase in Caspase 3 after treatment with Cmpd 1 (mean of triplicates) (REH [6]; 0.0007 μM Compound 1, 48 hrs): 132%
% Increase in Caspase 3 after treatment with Cmpd 1 (mean of triplicates) (RS4;11 [7]; 0.009 μM Compound 1, 48 hrs): 111%
pEC50 (HEL 92.1.7 [8]; Homo sapiens): 7.47
pEC50 (Kasumi; Homo sapiens): 7.80
pEC50 (REH [12]; Homo sapiens): 8.22
Tumor Volume at day 33 Mean ± Standard Error ([1]; 0.1 mg/kg IV administered twice a week, 6 cycles): 189 ± 22.3 mm^3
Tumor Volume at day 33 Mean ± Standard Error ([1]; 1 mg/kg IV administered twice a week, 6 cycles): 154 ± 15 mm^3
Tumor Volume at day 33 Mean ± Standard Error ([1]; 5 mg/kg IV administered once a week, three cycles): 167 ± 11.7 mm^3

Structure (SMILES): O=C1Nc2cc(Br)ccc2/C1=C1/Nc2ccccc2/C1=N\O [GSK3-IX, (2′Z,3′E)-6-bromoindirubin-3′-oxime]
pEC50 (HEL 92.1.7 [8]): < 5.48
pEC50 (Jurkat [9]): < 5.48
pEC50 (K562 [10]): < 5.48
pEC50 (Kasumi): 5.92
pEC50 (MV4;11 [11]): 6.70
pEC50 (REH [12]): 5.96
pEC50 (RS4;11 [13]): 6.52

pEC50 (Jurkat [9]; Homo sapiens): < 5.00
pEC50 (K562 [10]; Homo sapiens): 4.70
pEC50 (MV4;11 [11]; Homo sapiens): 4.90
pEC50 (RS4;11 [13]; Homo sapiens): 5.36
Structure (SMILES): Cn1cc(C2=C(c3ccc(Cl)cc3Cl)C(=O)NC2=O)c2ccccc21 [SB216763, 3-(2,4-dichlorophenyl)-4-(1-methyl-1H-indol-3-yl)-1H-pyrrole-2,5-dione]
% Increase in Caspase 3 after treatment with SB216763 (mean of triplicates) (HEL 92.1.7 [2]; 10 μM SB216763, 48 hrs): 250%
% Increase in Caspase 3 after treatment with SB216763 (mean of triplicates) (Jurkat [3]; 10 μM SB216763, 48 hrs): 101%
% Increase in Caspase 3 after treatment with SB216763 (mean of triplicates) (K562 [4]; 20 μM SB216763, 48 hrs): 223%
% Increase in Caspase 3 after treatment with SB216763 (mean of triplicates) (Kasumi 1; 10 μM SB216763, 48 hrs): 27%
% Increase in Caspase 3 after treatment with SB216763 (mean of triplicates) (MV4;11 [5]; 30 μM SB216763, 48 hrs): 83%
% Increase in Caspase 3 after treatment with SB216763 (mean of triplicates) (REH [6]; 20 μM SB216763, 48 hrs): 113%
% Increase in Caspase 3 after treatment with SB216763 (mean of triplicates) (RS4;11 [7]; 20 μM SB216763, 48 hrs): 117%
pEC50 (HEL 92.1.7 [8]; Homo sapiens): 4.95
pEC50 (Kasumi; Homo sapiens): 5.00
pEC50 (REH [12]; Homo sapiens): 5.38
